Literature values in patent US20050196418A1, “Bioavailability and improved delivery of alkaline pharmaceutical drugs” (priority 2004, published 2005).

Settings: free base; due to air oxidation

Clc1ccccc1C(c1ccccc1)(c1ccccc1)n1ccnc1 [Clotrimazole]
chemical stability in a solution or formulation for shelf storage: chemically unstable
